In PubChem BioAssay (NCI):
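Test compounds were applied to cells in 96-well plates for 48 hours at 5 doses. The concentration for 50% growth inhibition is given as GI50. TGI: total growth inhibition.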

Key:
Assay in all cases: NCI anticancer screen, dose series, 48 h
[1] = tested on: SK-MEL-5 melanoma
[2] = tested on: HT29 colon
[3] = tested on: MALME-3M melanoma
[4] = tested on: UACC-62 melanoma
[5] = tested on: HCC-2998 colon
[6] = tested on: DU-145 prostate
[7] = tested on: NCI-H23 lung
[8] = tested on: UO-31 renal
[9] = tested on: OVCAR-4 ovarian
[10] = tested on: CAKI-1 renal
[11] = tested on: UACC-257 melanoma
[12] = tested on: OVCAR-5 ovarian
[13] = tested on: SW-620 colon
[14] = tested on: HOP-62 NSCLC
[15] = tested on: MDA-MB-435
[16] = tested on: 786-0 renal
[17] = tested on: EKVX NSCLC
[18] = tested on: PC-3 prostate
[19] = tested on: MDA-MB-231 breast
[20] = tested on: IGROV1 ovarian
[21] = tested on: SNB-75 CNS
[22] = tested on: SN12C renal
[23] = tested on: NCI-H522 lung
[24] = tested on: A549 NSCLC
[25] = tested on: HS 578T breast
[26] = tested on: KM12 colon
[27] = tested on: K-562 leukemia
[28] = tested on: MCF7 breast
[29] = tested on: SF-295 CNS
[30] = tested on: M14 melanoma
[31] = tested on: BT-549 breast
[32] = tested on: SK-MEL-28 melanoma
[33] = tested on: SNB-19 CNS
[34] = tested on: HCT-15 colon
[35] = tested on: NCI-H460 lung
[36] = tested on: SF-268 CNS
[37] = tested on: NCI-H226 lung
[38] = tested on: OVCAR-8 ovarian
[39] = tested on: SK-OV-3 ovarian
[40] = tested on: OVCAR-3 ovarian
[41] = tested on: COLO 205 colon
[42] = tested on: HCT-116 colon
[43] = tested on: LOX IMVI melanoma
[44] = tested on: HOP-92 NSCLC
[45] = tested on: MOLT-4 leukemia
[46] = tested on: SK-MEL-2 melanoma
[47] = tested on: NCI/ADR-RES ovarian
[48] = tested on: RXF 393 renal
[49] = tested on: U251 CNS
[50] = tested on: TK-10 renal
[51] = tested on: ACHN renal
[52] = tested on: SR leukemia
[53] = tested on: RPMI-8226 leukemia
[54] = tested on: A498 renal
[55] = tested on: SF-539 CNS
[56] = tested on: CCRF-CEM leukemia
[57] = tested on: HL-60(TB) leukemia

## O=C1C=CC(=O)c2cc3cc(CO)ccc3cc21
[1]
  GI50: 10.9 µM
  TGI: 22.9 µM
[2]
  GI50: 10.9 µM
  TGI: > 100 µM
[3]
  GI50: 11.5 µM
  TGI: 26.1 µM
[4]
  GI50: 17.9 µM
  TGI: 31.8 µM
[5]
  GI50: 4.42 µM
  TGI: 14.1 µM
[6]
  GI50: 1.1 µM
  TGI: 2.54 µM
[7]
  GI50: 15.8 µM
  TGI: 29.2 µM
[8]
  GI50: 2.35 µM
  TGI: 4.58 µM
[9]
  GI50: 5.55 µM
  TGI: 24.7 µM
[10]
  GI50: 3.48 µM
  TGI: 10.3 µM
[11]
  GI50: 12 µM
  TGI: 27.2 µM
[12]
  GI50: 20.5 µM
  TGI: 55.6 µM
[13]
  GI50: 1.51 µM
  TGI: 2.91 µM
[14]
  GI50: 17.3 µM
  TGI: 31.1 µM
[15]
  GI50: 10.4 µM
  TGI: 23.6 µM
[16]
  GI50: 1.74 µM
  TGI: 3.31 µM
[17]
  GI50: 14.5 µM
  TGI: 28.1 µM
[18]
  GI50: 16.2 µM
  TGI: 34.1 µM
[19]
  GI50: 11.5 µM
  TGI: 24.9 µM
[20]
  GI50: 8.79 µM
  TGI: 26 µM
[21]
  GI50: 19.9 µM
  TGI: 48.6 µM
[22]
  GI50: 5.76 µM
  TGI: 15.8 µM
[23]
  GI50: 9.48 µM
  TGI: 26.4 µM
[24]
  GI50: 19.3 µM
  TGI: 45.1 µM
[25]
  GI50: 21.3 µM
  TGI: 55.4 µM
[26]
  GI50: 19.3 µM
  TGI: 51.3 µM
[27]
  GI50: 1.06 µM
  TGI: 3.04 µM
[28]
  GI50: 14.5 µM
  TGI: 33.3 µM
[29]
  GI50: 20 µM
  TGI: 37.8 µM
[30]
  GI50: 14.4 µM
  TGI: 27.5 µM
[31]
  GI50: 12.9 µM
  TGI: 25.7 µM
[32]
  GI50: 29.5 µM
  TGI: > 100 µM
[33]
  GI50: 20 µM
  TGI: 66.8 µM
[34]
  GI50: 15.1 µM
  TGI: 28.4 µM
[35]
  GI50: 19.1 µM
  TGI: 39.8 µM
[36]
  GI50: 16.7 µM
  TGI: 34.7 µM
[37]
  GI50: 16.7 µM
  TGI: 31.5 µM
[38]
  GI50: 2.94 µM
  TGI: 11.2 µM
[39]
  GI50: 31.9 µM
  TGI: > 100 µM
[40]
  GI50: 1.71 µM
  TGI: 4.2 µM
[41]
  GI50: 11.1 µM
  TGI: 49.5 µM
[42]
  GI50: 1.82 µM
  TGI: 3.22 µM
[43]
  GI50: 1.94 µM
  TGI: 4.1 µM
[44]
  GI50: 2.76 µM
  TGI: 6.51 µM
[45]
  GI50: 0.621 µM
  TGI: > 100 µM
[46]
  GI50: 16.8 µM
  TGI: 32.8 µM
[47]
  GI50: 19.5 µM
  TGI: 36.2 µM
[48]
  GI50: 14.6 µM
  TGI: 29.9 µM
[49]
  GI50: 15.4 µM
  TGI: 28.7 µM
[50]
  GI50: 15.5 µM
  TGI: 30 µM
[51]
  GI50: 3.22 µM
  TGI: 10.8 µM

## CC(=O)NS(=O)(=O)c1ccc(-n2nc(-c3ccc(Cl)cc3)cc2-c2cc(O)ccc2O)cc1
[1]
  GI50: 36.4 µM
  TGI: > 100 µM
[4]
  GI50: 14.5 µM
  TGI: 27.6 µM
[5]
  GI50: 20.7 µM
  TGI: 39.7 µM
[6]
  GI50: 21.5 µM
  TGI: 47.5 µM
[7]
  GI50: 18.6 µM
  TGI: 32.6 µM
[8]
  GI50: 20.5 µM
  TGI: 45.6 µM
[10]
  GI50: 28.1 µM
  TGI: 56.9 µM
[11]
  GI50: 15.9 µM
  TGI: 45.7 µM
[12]
  GI50: 20.1 µM
  TGI: 40 µM
[13]
  GI50: 75 µM
  TGI: > 100 µM
[15]
  GI50: 31.6 µM
  TGI: > 100 µM
[16]
  GI50: 16.1 µM
  TGI: 29.6 µM
[17]
  GI50: 46.1 µM
  TGI: > 100 µM
[18]
  GI50: 13.8 µM
  TGI: 30 µM
[19]
  GI50: 10.9 µM
  TGI: 22.8 µM
[20]
  GI50: 92.8 µM
  TGI: > 100 µM
[22]
  GI50: 19.6 µM
  TGI: 40.8 µM
[23]
  GI50: 37 µM
  TGI: > 100 µM
[24]
  GI50: 34.9 µM
  TGI: > 100 µM
[25]
  GI50: 62.2 µM
  TGI: > 100 µM
[52]
  GI50: 39.5 µM
  TGI: > 100 µM
[26]
  GI50: 41.1 µM
  TGI: > 100 µM
[53]
  GI50: 21.1 µM
  TGI: 59.8 µM
[54]
  GI50: 24.8 µM
  TGI: 93.4 µM
[55]
  GI50: 32.4 µM
  TGI: 81.6 µM
[27]
  GI50: 29.9 µM
  TGI: 96 µM
[56]
  GI50: 5.55 µM
  TGI: > 100 µM
[28]
  GI50: > 100 µM
  TGI: > 100 µM
[29]
  GI50: 30.9 µM
  TGI: > 100 µM
[30]
  GI50: 14 µM
  TGI: 27 µM
[31]
  GI50: > 100 µM
  TGI: > 100 µM
[34]
  GI50: 13.6 µM
  TGI: 26.5 µM
[35]
  GI50: > 100 µM
  TGI: > 100 µM
[36]
  GI50: 52.1 µM
  TGI: > 100 µM
[37]
  GI50: 14.4 µM
  TGI: 36.2 µM
[38]
  GI50: 33 µM
  TGI: > 100 µM
[40]
  GI50: 32.6 µM
  TGI: 84.9 µM
[44]
  GI50: 17.1 µM
  TGI: 48.4 µM
[45]
  GI50: 87.3 µM
  TGI: > 100 µM
[46]
  GI50: > 100 µM
  TGI: > 100 µM
[47]
  GI50: 27.2 µM
  TGI: 70 µM
[57]
  GI50: 40.8 µM
  TGI: > 100 µM
[50]
  GI50: 31.7 µM
  TGI: 92.6 µM
